The target in this assay is T1, 3-phosphoinositide-dependent protein kinase 1 (PDK1) (Homo sapiens, UniProt O15530).
T1 construct: gene PDPK1; PH domain, amino-acids 411-552
T1 sequence (O15530 411-552): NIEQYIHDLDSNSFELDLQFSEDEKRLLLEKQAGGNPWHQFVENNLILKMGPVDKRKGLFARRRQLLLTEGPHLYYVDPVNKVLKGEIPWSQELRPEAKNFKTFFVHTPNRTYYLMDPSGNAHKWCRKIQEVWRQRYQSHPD
In words: isothermal titration calorimetry with purified recombinant PH domain, […] °C, four experiments, n = […]. The format is binding.

For orientation: Kd means the concentration at which binding is half-saturated.

Regarding `O=P(O)(O)O[C@@H]1[C@@H](OP(=O)(O)O)[C@H](OP(=O)(O)O)[C@H](OCc2ccccc2)[C@H](OP(=O)(O)O)[C@H]1OP(=O)(O)O` [2-O-Bn-InsP5, 2-O-benzyl-myo-inositol 1,3,4,5,6-pentakisphosphate], the Kd was found to be 0.109 ± 0.044 µM.
